Measured values reported in ChEMBL document CHEMBL1275257, “Antimicrobial activity of CHIR-090, an inhibitor of lipopolysaccharide biosynthesis, against the Burkholderia cepacia complex” (2010).
Values after ≈ are worked out from the molar mass of the structure shown. Active and inactive are the calls of the source. The rule behind the calls is not given here.

What was measured:
Burkholderia cepacia [1] = test: Antimicrobial activity against genomovar type I Burkholderia cepacia ATCC 25416 at 40 ug/disk by disk diffusion growth inhibition assay; type: functional, organism-based
Burkholderia stabilis [2] = test: Antimicrobial activity against genomovar type IV Burkholderia stabilis C7322 at 40 ug/disk by disk diffusion growth inhibition assay; type: functional; conditions: read-out: DIZ
Burkholderia anthina [3] = test: Antimicrobial activity against genomovar type VIII Burkholderia anthina J2552 at 40 ug/disk by disk diffusion growth inhibition assay; type: functional
Burkholderia multivorans [4] = test: Antimicrobial activity against genomovar type II Burkholderia multivorans CF-A1-1; type: functional
Burkholderia stabilis [5] = test: Antimicrobial activity against genomovar type IV Burkholderia stabilis LMG 14086 at 40 ug/disk by disk diffusion growth inhibition assay; type: functional
Burkholderia pyrrocinia [6] = test: Antimicrobial activity against genomovar type IX Burkholderia pyrrocinia ATCC 15958 at 40 ug/disk by disk diffusion growth inhibition assay; type: functional; conditions: read-out: DIZ
Burkholderia cenocepacia [7] = test: Antimicrobial activity against genomovar type III Burkholderia cenocepacia SAL1 at 40 ug/disk by disk diffusion growth inhibition assay; type: functional, organism-based
Burkholderia pyrrocinia [8] = test: Antimicrobial activity against genomovar type IX Burkholderia pyrrocinia C1469 at 40 ug/disk by disk diffusion growth inhibition assay; type: functional
Burkholderia multivorans [9] = test: Antimicrobial activity against genomovar type II Burkholderia multivorans C1962; type: functional
[10] = tested on: Burkholderia vietnamiensis; test: Antimicrobial activity against genomovar type V Burkholderia vietnamiensis PC259 at 40 ug/disk by disk diffusion growth inhibition assay; type: functional; conditions: read-out: DIZ
Burkholderia multivorans [11] = test: Antimicrobial activity against genomovar type II Burkholderia multivorans JTC at 40 ug/disk by disk diffusion growth inhibition assay; type: functional; conditions: read-out: DIZ
Burkholderia multivorans [12] = test: Antimicrobial activity against genomovar type II Burkholderia multivorans ATCC 17616 at 40 ug/disk by disk diffusion growth inhibition assay; type: functional; conditions: read-out: DIZ
Burkholderia anthina [13] = test: Antimicrobial activity against genomovar type VIII Burkholderia anthina C1765 at 40 ug/disk by disk diffusion growth inhibition assay; type: functional; conditions: read-out: DIZ
Burkholderia cenocepacia [14] = test: Antimicrobial activity against genomovar type III Burkholderia cenocepacia BC7 at 40 ug/disk by disk diffusion growth inhibition assay; type: functional, organism-based
Burkholderia multivorans [15] = test: Antimicrobial activity against genomovar type II Burkholderia multivorans 2492-2 at 40 ug/disk by disk diffusion growth inhibition assay; type: functional; conditions: read-out: DIZ
Escherichia coli = test: Antimicrobial activity against Escherichia coli 25922; type: functional
Burkholderia stabilis [16] = test: Antimicrobial activity against genomovar type IV Burkholderia stabilis LMG 18888 at 40 ug/disk by disk diffusion growth inhibition assay; type: functional
Pseudomonas aeruginosa [17] = test: Antimicrobial activity against Pseudomonas aeruginosa ATCC 10145; type: functional
Burkholderia cenocepacia [18] = test: Antimicrobial activity against genomovar type III Burkholderia cenocepacia C5424 at 40 ug/disk by disk diffusion growth inhibition assay; type: functional; conditions: read-out: DIZ
Pseudomonas aeruginosa [19] = test: Antimicrobial activity against Pseudomonas aeruginosa ATCC 27853; type: functional
Burkholderia ambifaria [20] = test: Antimicrobial activity against genomovar type VII Burkholderia ambifaria AMMD at 40 ug/disk by disk diffusion growth inhibition assay; type: functional; conditions: read-out: DIZ
Burkholderia cenocepacia [21] = test: Antimicrobial activity against genomovar type III Burkholderia cenocepacia CEP511 at 40 ug/disk by disk diffusion growth inhibition assay; type: functional, organism-based
Burkholderia multivorans [22] = test: Antimicrobial activity against genomovar type II Burkholderia multivorans ATCC 17616; type: functional
[23] = tested on: Burkholderia vietnamiensis; test: Antimicrobial activity against genomovar type V Burkholderia vietnamiensis LMG 16232 at 40 ug/disk by disk diffusion growth inhibition assay; type: functional; conditions: read-out: DIZ
Burkholderia multivorans [24] = test: Antimicrobial activity against genomovar type II Burkholderia multivorans C1576 at 40 ug/disk by disk diffusion growth inhibition assay; type: functional; conditions: read-out: DIZ
[25] = tested on: Burkholderia vietnamiensis; test: Antimicrobial activity against genomovar type V Burkholderia vietnamiensis FC441 at 40 ug/disk by disk diffusion growth inhibition assay; type: functional; conditions: read-out: DIZ
Burkholderia anthina [26] = test: Antimicrobial activity against genomovar type VIII Burkholderia anthina AU1293 at 40 ug/disk by disk diffusion growth inhibition assay; type: functional; conditions: read-out: DIZ
Burkholderia pyrrocinia [27] = test: Antimicrobial activity against genomovar type IX Burkholderia pyrrocinia BC011 at 40 ug/disk by disk diffusion growth inhibition assay; type: functional; conditions: read-out: DIZ
Burkholderia cepacia [28] = test: Antimicrobial activity against genomovar type I Burkholderia cepacia ATCC 17759 at 40 ug/disk by disk diffusion growth inhibition assay; type: functional, organism-based
Burkholderia cenocepacia [29] = test: Antimicrobial activity against genomovar type III Burkholderia cenocepacia J415 at 40 ug/disk by disk diffusion growth inhibition assay; type: functional; conditions: read-out: DIZ
Burkholderia multivorans [30] = test: Antimicrobial activity against genomovar type II Burkholderia multivorans LMG 13010 at 40 ug/disk by disk diffusion growth inhibition assay; type: functional; conditions: read-out: DIZ
Burkholderia stabilis [31] = test: Antimicrobial activity against genomovar type IV Burkholderia stabilis LMG 14294 at 40 ug/disk by disk diffusion growth inhibition assay; type: functional
Burkholderia multivorans [32] = test: Antimicrobial activity against genomovar type II Burkholderia multivorans CFA11 at 40 ug/disk by disk diffusion growth inhibition assay; type: functional; conditions: read-out: DIZ
Burkholderia dolosa [33] = test: Antimicrobial activity against genomovar type VI Burkholderia dolosa CEP021 at 40 ug/disk by disk diffusion growth inhibition assay; type: functional; conditions: read-out: DIZ
Burkholderia dolosa [34] = test: Antimicrobial activity against genomovar type VI Burkholderia dolosa AU0645 at 40 ug/disk by disk diffusion growth inhibition assay; type: functional; conditions: read-out: DIZ
Burkholderia ambifaria [35] = test: Antimicrobial activity against genomovar type VII Burkholderia ambifaria CEP0996 at 40 ug/disk by disk diffusion growth inhibition assay; type: functional; conditions: read-out: DIZ
Burkholderia multivorans [36] = test: Antimicrobial activity against genomovar type II Burkholderia multivorans JTC; type: functional
[37] = tested on: Burkholderia vietnamiensis; test: Antimicrobial activity against genomovar type V Burkholderia vietnamiensis LMG 10929 at 40 ug/disk by disk diffusion growth inhibition assay; type: functional; conditions: read-out: DIZ
Burkholderia multivorans [38] = test: Antimicrobial activity against genomovar type II Burkholderia multivorans 249-2; type: functional
Burkholderia cenocepacia [39] = test: Antimicrobial activity against genomovar type III Burkholderia cenocepacia J2315 at 40 ug/disk by disk diffusion growth inhibition assay; type: functional, organism-based
Burkholderia dolosa [40] = test: Antimicrobial activity against genomovar type VI Burkholderia dolosa STM1441 at 40 ug/disk by disk diffusion growth inhibition assay; type: functional; conditions: read-out: DIZ
Burkholderia cenocepacia [41] = test: Antimicrobial activity against genomovar type III Burkholderia cenocepacia PC184 at 40 ug/disk by disk diffusion growth inhibition assay; type: functional; conditions: read-out: DIZ
Burkholderia multivorans [42] = test: Antimicrobial activity against genomovar type II Burkholderia multivorans C5393 at 40 ug/disk by disk diffusion growth inhibition assay; type: functional; conditions: read-out: DIZ
Burkholderia multivorans [43] = test: Antimicrobial activity against genomovar type II Burkholderia multivorans C1962 at 40 ug/disk by disk diffusion growth inhibition assay; type: functional; conditions: read-out: DIZ
Burkholderia anthina [44] = test: Antimicrobial activity against genomovar type VIII Burkholderia anthina W92 at 40 ug/disk by disk diffusion growth inhibition assay; type: functional
Burkholderia dolosa [45] = test: Antimicrobial activity against genomovar type VI Burkholderia dolosa E12 at 40 ug/disk by disk diffusion growth inhibition assay; type: functional; conditions: read-out: DIZ
Burkholderia multivorans [46] = test: Antimicrobial activity against genomovar type II Burkholderia multivorans C1576; type: functional
Burkholderia ambifaria [47] = test: Antimicrobial activity against genomovar type VII Burkholderia ambifaria ATCC 53266 at 40 ug/disk by disk diffusion growth inhibition assay; type: functional; conditions: read-out: DIZ
Burkholderia multivorans [48] = test: Antimicrobial activity against genomovar type II Burkholderia multivorans C5393; type: functional
Burkholderia cepacia [49] = test: Antimicrobial activity against genomovar type I Burkholderia cepacia CEP509 at 40 ug/disk by disk diffusion growth inhibition assay; type: functional, organism-based
Burkholderia pyrrocinia [50] = test: Antimicrobial activity against genomovar type IX Burkholderia pyrrocinia ATCC 39277 at 40 ug/disk by disk diffusion growth inhibition assay; type: functional; conditions: read-out: DIZ
Burkholderia cenocepacia [51] = test: Antimicrobial activity against genomovar type III Burkholderia cenocepacia C6433 at 40 ug/disk by disk diffusion growth inhibition assay; type: functional, organism-based
Burkholderia cenocepacia [52] = test: Antimicrobial activity against genomovar type III Burkholderia cenocepacia K562 at 40 ug/disk by disk diffusion growth inhibition assay; type: functional, organism-based
Burkholderia cenocepacia [53] = test: Antimicrobial activity against genomovar type III Burkholderia cenocepacia ATCC 17765 at 40 ug/disk by disk diffusion growth inhibition assay; type: functional, organism-based

C[C@@H](O)[C@H](NC(=O)c1ccc(C#Cc2ccc(CN3CCOCC3)cc2)cc1)C(=O)NO was tested, and the “diameter of the inhibition zone (DIZ)” value (Burkholderia cepacia [1]) was “inactive”, the zone of inhibition at 40 µg/disc (Burkholderia stabilis [2]) was 14 mm and the “diameter of the inhibition zone (DIZ)” value (Burkholderia anthina [3]) was “inactive”. For the same molecule, the MIC (Burkholderia multivorans [4]) was 1.56 µg/mL (≈ 3.57 µM), the “diameter of the inhibition zone (DIZ)” value (Burkholderia stabilis [5]) was “inactive” and the zone of inhibition at 40 µg/disc (Burkholderia pyrrocinia [6]) was 20 mm. The “diameter of the inhibition zone (DIZ)” value (Burkholderia cenocepacia [7]) was “inactive”, the “diameter of the inhibition zone (DIZ)” value (Burkholderia pyrrocinia [8]) was “inactive” and the MIC (Burkholderia multivorans [9]) was 3.13 µg/mL (≈ 7.15 µM). For the same molecule, the zone of inhibition at 40 µg/disc [10] was 26 mm, the zone of inhibition at 40 µg/disc (Burkholderia multivorans [11]) was 23 mm and the zone of inhibition at 40 µg/disc (Burkholderia multivorans [12]) was 17 mm. The zone of inhibition at 40 µg/disc (Burkholderia anthina [13]) was 13 mm, the “diameter of the inhibition zone (DIZ)” value (Burkholderia cenocepacia [14]) was “inactive” and the zone of inhibition at 40 µg/disc (Burkholderia multivorans [15]) was 26 mm. The MIC (Escherichia coli) was 0.05 µg/mL (≈ 0.114 µM), the “diameter of the inhibition zone (DIZ)” value (Burkholderia stabilis [16]) was “inactive” and the MIC (Pseudomonas aeruginosa [17]) was 0.78 µg/mL (≈ 1.78 µM). The zone of inhibition at 40 µg/disc (Burkholderia cenocepacia [18]) was 19 mm, the MIC (Pseudomonas aeruginosa [19]) was 0.78 µg/mL (≈ 1.78 µM) and the zone of inhibition at 40 µg/disc (Burkholderia ambifaria [20]) was 23 mm. For the same molecule, the “diameter of the inhibition zone (DIZ)” value (Burkholderia cenocepacia [21]) was “inactive”, the MIC (Burkholderia multivorans [22]) was 6.25 µg/mL (≈ 14.3 µM) and the zone of inhibition at 40 µg/disc [23] was 23 mm. The zone of inhibition at 40 µg/disc (Burkholderia multivorans [24]) was 15 mm, the zone of inhibition at 40 µg/disc [25] was 9 mm and the zone of inhibition at 40 µg/disc (Burkholderia anthina [26]) was 10 mm. The zone of inhibition at 40 µg/disc (Burkholderia pyrrocinia [27]) was 23 mm, the “diameter of the inhibition zone (DIZ)” value (Burkholderia cepacia [28]) was “inactive” and the zone of inhibition at 40 µg/disc (Burkholderia cenocepacia [29]) was 21 mm. For the same molecule, the zone of inhibition at 40 µg/disc (Burkholderia multivorans [30]) was 14 mm, the “diameter of the inhibition zone (DIZ)” value (Burkholderia stabilis [31]) was “inactive” and the zone of inhibition at 40 µg/disc (Burkholderia multivorans [32]) was 22 mm. For the same molecule, the zone of inhibition at 40 µg/disc (Burkholderia dolosa [33]) was 24 mm, the zone of inhibition at 40 µg/disc (Burkholderia dolosa [34]) was 18 mm and the zone of inhibition at 40 µg/disc (Burkholderia ambifaria [35]) was 22 mm. For the same molecule, the MIC (Burkholderia multivorans [36]) was 1.56 µg/mL (≈ 3.57 µM), the zone of inhibition at 40 µg/disc [37] was 23 mm and the MIC (Burkholderia multivorans [38]) was 0.1 µg/mL (≈ 0.229 µM). The “diameter of the inhibition zone (DIZ)” value (Burkholderia cenocepacia [39]) was “inactive”, the zone of inhibition at 40 µg/disc (Burkholderia dolosa [40]) was 21 mm and the zone of inhibition at 40 µg/disc (Burkholderia cenocepacia [41]) was 18 mm. The zone of inhibition at 40 µg/disc (Burkholderia multivorans [42]) was 20 mm, the zone of inhibition at 40 µg/disc (Burkholderia multivorans [43]) was 24 mm and the “diameter of the inhibition zone (DIZ)” value (Burkholderia anthina [44]) was “inactive”. The zone of inhibition at 40 µg/disc (Burkholderia dolosa [45]) was 23 mm, the MIC (Burkholderia multivorans [46]) was 12.5 µg/mL (≈ 28.6 µM) and the zone of inhibition at 40 µg/disc (Burkholderia ambifaria [47]) was 24 mm. The MIC (Burkholderia multivorans [48]) was 3.13 µg/mL (≈ 7.15 µM), the “diameter of the inhibition zone (DIZ)” value (Burkholderia cepacia [49]) was “inactive” and the zone of inhibition at 40 µg/disc (Burkholderia pyrrocinia [50]) was 22 mm. For the same molecule, the “diameter of the inhibition zone (DIZ)” value (Burkholderia cenocepacia [51]) was “inactive”, the “diameter of the inhibition zone (DIZ)” value (Burkholderia cenocepacia [52]) was “inactive” and the “diameter of the inhibition zone (DIZ)” value (Burkholderia cenocepacia [53]) was “inactive”.
Work on POLYMYXIN B yielded an MIC (Escherichia coli) of 0.78 µg/mL, an MIC (Pseudomonas aeruginosa [17]) of 3.13 µg/mL and an MIC (Pseudomonas aeruginosa [19]) of 3.13 µg/mL.
